ChEMBL document CHEMBL5537161, “Structure-Guided Design, Synthesis, and Antivirulence Assessment of Covalent Staphylococcus aureus Sortase A Inhibitors” (J Med Chem, 2024)
≈ marks a conversion by molar mass, not a printed value.

Experiments:
Sortase A [1] = target: T1, Sortase A (Staphylococcus aureus, UniProt Q9S446, N24DEL); test: Inhibition of Staphylococcus aureus sortase A N24 deletion mutant using Abz-LPATG-Dnp as substrate preincubated for 20 mins followed by substrate addition by FRET assay
Staphylococcus aureus = test: Bactericidal activity against Staphylococcus aureus Newman assessed as reduction in bacterial growth incubated for 16 to 18 hrs; type: functional; settings: time 16-18 hrs
Sortase A [2] = target: T1, Sortase A; test: Inhibition of Staphylococcus aureus Sortase A N24 deletion mutant transpeptidation using IsdA64-323 as substrate preincubated for 20 mins followed by substrate addition and measured after 1.5 hrs by SDS-PAGE analysis

Row | Structure (SMILES) | IC50 (Sortase A [1]) | MIC (Staphylococcus aureus) | IC50 (Sortase A [2])
1 | COc1ccc(/C=C/C=C2C(=O)N(C)C(=S)N(C)C2=O)cc1 | > 50 µM | > 128 µg/mL | –
2 | CC(C)CC=C1C(=O)NC(=O)NC1=O | > 50 µM | > 128 µg/mL | –
3 | COc1ncc(/C=C/C=C2C(=O)NC(=O)NC2=O)cn1 | 7.7 µM | > 128 µg/mL | –
4 | O=C1NC(=O)C(=C/C=C/c2ccc(OC(=O)CNC(=O)OCc3ccccc3)cc2)C(=O)N1 | 1.8 µM | > 128 µg/mL | –
5 | O=C1NC(=O)C(=C/C=C/c2ccc(Br)cc2)C(=O)N1 | 0.7 µM | 64 µg/mL (≈ 199 µM) | 9 µM
6 | COc1cccc(/C=C/C=C2C(=O)NC(=O)NC2=O)c1 | 2.1 µM | 128 µg/mL (≈ 470 µM) | –
7 | O=C1NC(=O)C(=C/C=C/c2ccc(Cl)c(Cl)c2)C(=O)N1 | 1 µM | 32 µg/mL (≈ 103 µM) | –
8 | CC(C)(C)c1ccc(COc2ccc(/C=C/C=C3C(=O)NC(=O)NC3=O)cc2)cc1 | > 50 µM | 128 µg/mL (≈ 316 µM) | –
9 | O=C1NC(=O)C(=C/C=C/c2ccc(OCc3ccc(Cl)cc3)cc2)C(=O)N1 | 2.5 µM | > 128 µg/mL | –
10 | Cc1ccc(COc2ccc(/C=C/C=C3C(=O)NC(=O)NC3=O)cc2)cc1 | 1.1 µM | > 128 µg/mL | –
11 | COc1ccc(COc2ccc(/C=C/C=C3C(=O)NC(=O)NC3=O)cc2)cc1 | 1.6 µM | > 128 µg/mL | –
12 | CC(C)C[C@H](NC(=O)OCc1ccccc1)C(=O)Oc1ccc(/C=C/C=C2C(=O)NC(=O)NC2=O)cc1 | 5.6 µM | 64 µg/mL (≈ 127 µM) | –
13 | CCCCc1ccc(COc2ccc(/C=C/C=C3C(=O)NC(=O)NC3=O)cc2)cc1 | > 50 µM | > 128 µg/mL | –
14 | O=C1NC(=O)C(=Cc2ccc(-c3ccc(Br)cc3)o2)C(=O)N1 | > 50 µM | 64 µg/mL (≈ 177 µM) | –
15 | CN(C)c1ccc(/C=C/C=C2C(=O)NC(=O)NC2=O)cc1 | > 50 µM | > 128 µg/mL | –
16 | O=C1NC(=O)C(=C/C=C/c2ccc(OCc3cccnc3)cc2)C(=O)N1 | > 50 µM | > 128 µg/mL | –
17 | O=C1NC(=O)C(=C/C=C/c2ccc([N+](=O)[O-])cc2)C(=O)N1 | 2 µM | 128 µg/mL (≈ 446 µM) | –
18 | O=C1NC(=O)C(=C/C=C/c2ccc(OCc3ccsc3)cc2)C(=O)N1 | 0.7 µM | > 128 µg/mL | –
19 | O=C1NC(=O)C(=C/C=C/c2ccc(Cl)cc2)C(=O)N1 | 1 µM | 128 µg/mL (≈ 463 µM) | –
20 | O=C1NC(=O)C(=C/C=C/c2ccc(C(F)(F)F)cc2)C(=O)N1 | 1.4 µM | 64 µg/mL (≈ 206 µM) | –
21 | COc1ccc(/C=C/C=C2C(=O)NC(=S)NC2=O)cc1 | 2.8 µM | > 128 µg/mL | –
22 | O=C1NC(=O)C(=C/C=C/c2ccc(OCC(=O)c3ccco3)cc2)C(=O)N1 | 0.8 µM | > 128 µg/mL | 24.6 µM
23 | O=C1NC(=O)C(=C/C=C/c2ccc(OCc3ccncc3)cc2)C(=O)N1 | > 50 µM | > 128 µg/mL | –
24 | COC(=O)c1ccc(/C=C/C=C2C(=O)NC(=O)NC2=O)cc1 | 2.2 µM | > 128 µg/mL | –
25 | O=C1NC(=O)C(=C/C=C/c2ccc(OCc3ccc(OCc4ccccc4)cc3)cc2)C(=O)N1 | > 50 µM | > 128 µg/mL | –
26 | O=C1NC(=O)C(=C/C=C/c2ccc(OCc3ccccc3)cc2)C(=O)N1 | 0.5 µM | > 128 µg/mL | 8.9 µM
27 | COc1ccc(/C(C#N)=C/C=C2C(=O)NC(=O)NC2=O)cc1 | 4.7 µM | 128 µg/mL (≈ 431 µM) | –
28 | COc1ccc(/C=C/C=C2C(=O)c3ccccc3C2=O)cc1 | > 50 µM | > 128 µg/mL | –
